# According to patent publication US20150231077A1, “AMINE PASSIVATED NANOPARTICLES FOR CANCER TREATMENT AND IMAGING” (THE CLEVELAND CLINIC FOUNDATION, priority 2014, published 2015):
# “Also recorded” adds a separate entry of the source.
# Test system: not listed separately
# Assay: Formation and TEM size of amine-passivated Au nanoparticles
# Format: physicochemical
# Details: size of the Au nanoparticle formed with the named amine compound as ligand, same synthesis conditions
# Experimental: In a typical synthesis of water soluble nanoparticles Au:MTX, 5 μmol of HAuCl4 and 25 μmol of MTX were dispersed with brief sonication in 2 mL methanol in a tri-neck 15 mL flask on ice water (0° C.) bath under Ar purge. After 1 hour of stirring at 700 rpm, 0.5 mL of freshly prepared 0.11 M NaBH4 on ice was added drop-wise at 1200 rpm. After ˜1 hour, stirring speed was reduced to 700 rpm and kept for additional ˜30 minutes.
# The reacted solution was centrifuged at 4° C. at 16,100×g for 15 minutes twice, with the addition of 4:1 (volume) mixture of methanol and water, and ethanol respectively. This set of two step centrifugation was repeated at least 3 times, and then the precipitate was re-dispersed in water to obtain aqueous solutions. The aqueous solution was further purified using 3 k ultra centrifugal filter (Millipore, Billerica, Mass.). […]
row,Compound,nanoparticle (formation of monolayer-protected Au nanoparticles)
1,"CN(Cc1cnc2nc(N)nc(N)c2n1)c1ccc(C(=O)N[C@@H](CCC(=O)O)C(=O)O)cc1 [MTX, methotrexate]",2.6 ± 0.7 nm
2,Nc1ncnc2c1ncn2[C@@H]1O[C@H](COP(=O)(O)OP(=O)(O)O)[C@@H](O)[C@H]1O [adenosine diphosphate],2.3 ± 0.7 nm
3,Nc1ncnc2c1ncn2[C@@H]1O[C@H](COP(=O)(O)O)[C@@H](O)[C@H]1O [adenosine monophosphate],did not form
4,Nc1ncnc2c1ncn2[C@@H]1O[C@H](COP(=O)(O)OP(=O)(O)OP(=O)(O)O)[C@@H](O)[C@H]1O [adenosine triphosphate],2.1 ± 0.7 nm
5,Nc1ncnc2c1ncn2[C@@H]1O[C@H](CO)[C@@H](O)[C@H]1O [adenosine],did not form
6,Nc1ccn([C@@H]2O[C@H](COP(=O)(O)OP(=O)(O)O)[C@@H](O)[C@H]2O)c(=O)n1 [cytidine diphosphate],2.5 ± 0.8 nm
7,Nc1ccn([C@@H]2O[C@H](COP(=O)(O)O)[C@@H](O)[C@H]2O)c(=O)n1 [cytidine monophosphate],4.5 ± 2.8 nm
8,Nc1ccn([C@@H]2O[C@H](COP(=O)(O)OP(=O)(O)OP(=O)(O)O)[C@@H](O)[C@H]2O)c(=O)n1 [cytidine triphosphate],2.6 ± 0.9 nm
9,Nc1ncnc2c1ncn2[C@H]1C[C@H](O)[C@@H](CO)O1 [deoxyadenosine],did not form
10,Nc1ccn([C@H]2C[C@H](O)[C@@H](CO)O2)c(=O)n1 [deoxycytidine],did not form
11,Nc1nc2c(ncn2[C@H]2C[C@H](O)[C@@H](CO)O2)c(=O)[nH]1 [deoxyguanosine],did not form
12,"NCCc1ccc(O)c(O)c1 [dopamine, reference compound]",did not form
13,"COc1cccc2c1C(=O)c1c(O)c3c(c(O)c1C2=O)C[C@@](O)(C(=O)CO)C[C@@H]3O[C@H]1C[C@H](N)[C@H](O)[C@H](C)O1 [doxorubicin, reference compound]",3.3 ± 1.2 nm
14,"Cc1cc2nc3c(=O)[nH]c(=O)nc-3n(C[C@H](O)[C@H](O)[C@H](O)COP(=O)(O)OP(=O)(O)OC[C@H]3O[C@@H](n4cnc5c(N)ncnc54)[C@H](O)[C@@H]3O)c2cc1C [flavin adenine dinucleotide (FAD), flavin adenine dinucleotide]",4.2 ± 1.6 nm
15,Nc1nc2ncc(CNc3ccc(C(=O)N[C@@H](CCC(=O)O)C(=O)O)cc3)nc2c(=O)[nH]1 [folic acid],2.6 ± 1.1 nm
16,Nc1nc2c(ncn2[C@@H]2O[C@H](COP(=O)(O)OP(=O)(O)O)[C@@H](O)[C@H]2O)c(=O)[nH]1 [guanosine diphosphate],2.4 ± 1.0 nm
17,Nc1nc2c(ncn2[C@@H]2O[C@H](COP(=O)(O)O)[C@@H](O)[C@H]2O)c(=O)[nH]1 [guanosine monophosphate],2.6 ± 1.0 nm
18,Nc1nc2c(ncn2[C@@H]2O[C@H](COP(=O)(O)OP(=O)(O)OP(=O)(O)O)[C@@H](O)[C@H]2O)c(=O)[nH]1 [guanosine triphosphate],2.3 ± 0.7 nm
19,Nc1nc2c(ncn2[C@@H]2O[C@H](CO)[C@@H](O)[C@H]2O)c(=O)[nH]1 [guanosine],2.7 ± 1.6 nm
20,NCCCC[C@H](N)C(=O)O [lysine],did not form
21,CSCC[C@H](N)C(=O)O [methionine],did not form
22,COC(=O)CCC(NC(=O)c1ccc(N(C)Cc2cnc3nc(N)nc(N)c3n2)cc1)C(=O)OC (stereo not drawn) [methotrexate dimethyl ester],2.2 ± 0.6 nm
23,"[H]/N=C(/N)N[C@H]1[C@H](O)[C@@H](O)[C@H](O[C@@H]2O[C@@H](C)[C@](O)(C=O)[C@H]2O[C@@H]2O[C@@H](CO)[C@H](O)[C@@H](O)[C@@H]2NC)[C@@H](N/C(N)=N\[H])[C@@H]1O [streptomycin, reference compound]",2.5 ± 1.2 nm
24,Cc1ncc(C[n+]2csc(CCO)c2C)c(N)n1 [thiamine],did not form
25,Cc1ncc(C[n+]2csc(CCOP(=O)(O)OP(=O)(O)O)c2C)c(N)n1 [thyamine pyrophosphate],3.1 ± 1.3 nm

# Test system: human AML cell line THP-1
# Assay: THP-1 growth curves (cell density and viability)
# Format: cell-based
# Details: 1, 2 and 5 nM
# Experimental: In order to evaluate the efficacy of Au:MTX in vitro, a human AML cell line THP-1 and human normal hematopoietic stem/progenitor cells (HSPCs) were used. HSPCs were isolated from umbilical cord blood via a CD34+ magnetic cell sorting (CD34 MicroBead Kit #130-046-702, Miltenyl Biotec, Auburn, Calif.). […] Cell density and viability were measured every 24 hours using the cell viability analyzer. […]
# The inventors characterized Au:MTX as drug delivery vehicles and evaluated in vitro therapeutic effects. Au:MTX was purified via sets of centrifugal precipitations, and the Au-to-MTX molar ratio (drug loading onto Au nanoparticle) was measured by elemental analyses (carbon-hydrogen-nitrogen analysis, or CHN; and inductively coupled plasma mass spectrometry, or ICP-MS). […] Au-to-MTX molar ratio was determined as [Au]:[MTX]=9.8:1, i.e. one nanoparticle on average carried ˜75 MTX molecules (assuming ˜1.44 Å as atomic radius of Au and uniform surface coverage, as illustrated in FIG. 1(c)). […] Drug delivery by Au:MTX was evaluated using a human AML cell line THP-1. […] Au:FOL, with the diameter 2.6±1.1 nm measured by TEM, is structurally similar to Au:MTX and was therefore used as an “Au nanoparticle without active drug” control. […]
row,Compound,THP-1 cell growth
1,"CN(Cc1cnc2nc(N)nc(N)c2n1)c1ccc(C(=O)N[C@@H](CCC(=O)O)C(=O)O)cc1 [MTX, methotrexate]",dose-dependent THP-1 growth suppression

# Test system: human normal hematopoietic stem/progenitor cells (HSPCs)
# Assay: Normal HSPC growth curves
# Format: cell-based
# Details: 1, 2 and 5 nM
# Experimental: In order to evaluate the efficacy of Au:MTX in vitro, a human AML cell line THP-1 and human normal hematopoietic stem/progenitor cells (HSPCs) were used. HSPCs were isolated from umbilical cord blood via a CD34+ magnetic cell sorting (CD34 MicroBead Kit #130-046-702, Miltenyl Biotec, Auburn, Calif.). THP-1 cells were cultured in Roswell Park Memorial Institute 1640 (RPMI, Life Technologies, Carlsbad, Calif.) with 10% fetal bovine serum (FBS, Life Technologies), and HSPCs were cultured in Iscove's Modified Dulbecco's Medium (IMDM, Life Technologies) with 10% FBS and cytokines (10 ng/mL of SCF, TPO, and FLT3; 5 ng/mL of IL-3 and IL-6, PeproTech, Rockey Hill, N.J.), respectively, using 24-well cell culture plates with 0.7 mL of culture media per well (at 37° C. with 5% CO2 and >95% humidity). Cell viability was confirmed to be >95% using cell viability analyzer (Vi-Cell, Beckman Coulter, Brea, Calif.) immediately before the experiments. Then the cells were treated with phosphate buffer saline (PBS, Life Technologies), MTX, aqueous solutions of equimolar Au:MTX, and/or equimolar Au:FOL (folic acid-passivated Au nanoparticles). Cell cultures were split two-fold after 72 hours by replenishing each well with fresh media. Cell density and viability were measured every 24 hours using the cell viability analyzer. […]
row,Compound,HSPC growth
1,"CN(Cc1cnc2nc(N)nc(N)c2n1)c1ccc(C(=O)N[C@@H](CCC(=O)O)C(=O)O)cc1 [MTX, methotrexate]",not significantly affected; also recorded: does not significantly affect
